Key:
[1] = system: MTAP-negative cell lines; test: Applicants' tissue culture experiments on MTAP-negative cell lines (summary statements); type: cell-based, human; mouse; conditions: co-administered inhibitor of de novo purine synthesis
[2] = system: MTAP(−) A549 cells; test: Clonogenic assay of A549 cells; type: cell-based, human; conditions: for potentiation of killing of A549 cells by DAP: Example 9
Experimental: (§1) Cell viability of adherent cell types was measured by clonogenic assay as follows: after releasing cells with trypsin and removing a portion of the cell suspension for Coulter counting, the remainder of the cell suspension was plated in serial dilutions in growth medium, without drugs. After a period sufficient for clones to reach a size visible by eye (usually 2 to 3 weeks), clones were stained with crystal violet in a saline/methanol solution. Dishes that had fewer than 100 clones were deemed suitable for counting. From these counts and from the dilution factors, the approximate number of viable cells, in the parent treatment dishes, was calculated. […] In clonogenic assays, clone size was often variable, especially after treatment with toxic drugs. Moreover, many of the very small clones may have arisen from cells detached during the weeks of incubation. […] Cloning efficiency for healthy, growing A549 cells was about 50%; for HF cells, efficiency was quite variable, ranging from 25 to 75% (perhaps because the HF cell stock varied, from experiment to experiment, in passage number).
A549 cells were incubated for 4 days with additions shown below, and viable cells measured by clonogenic assay. (Results shown are approximate; see Methods) Cell count in dish at start: 40,000
• MTAP(−) A549 lung tumor cell cultures were treated with F-Ade, with or without MTA, 5′-dAdo, or adenine (Ade), for three days. Coulter counts of cells, and viable cells as determined by clonogenic assay, are shown below: • Initial cell number: 10,340*
• A549 cell cultures were treated with DAP, with or without 5′-dAdo or adenine, for three days. After trypsinization, one-fourth of the cell suspension was counted, and raw data is shown below, with duplicate counts for each sample. The cell suspension was also serially diluted for clonogenic assay. • Counts at start of experiment: Dish one: 36,480; 39,160; Dish two: 52,680; 51,360. • Initial viable cells by clonogenic assay: 180,000.
• Cell cultures were treated with MTX or alanosine for one day. DAP was then added and 3 days later, cells were trypsinized and serially diluted for clonogenic assay. Results are shown below: • Initial viable cells: 146,000
• A549 cells were plated, and after they had adhered to the substrate, medium was changed to methionine-free medium with 10% dialyzed serum. L-ethionine (Eth) and MTA were added, and after 4 days, cell cultures were trypsinized and serially diluted for clonogenic assay. • Initial number of viable cells: 160,000*
• A549 cultures were treated with 6-thioguanine (TG) or 2,6,diaminopurine (DAP), or both, for 3 days. • Initial viable cells: 275,000 • After 3 days: […]

[3] = system: MTAP(+) HF cells; test: Clonogenic assay of HF cells; type: cell-based, human
Experimental: as §1
• B. F-Ade was added to cultures of MTAP(+) HF cells, with or without 5′-dAdo, for 3 days. Cultures were then trypsinized and serially diluted for clonogenic assay. • Initial number of viable cells per dish: 45,000 • Viable cells after 3 days shown below:
• HF cells were plated, and after they had adhered to the substrate, medium was changed to methionine-free medium, with 10% dialyzed serum. • Initial Coulter count: 73,000*; viable cells: 88,000 • After 3 days in methionine-free medium, with or without L-ethionine (Eth) or MTA: […]

[4] = system: MTAP-positive cells and cells lines; test: Applicants' tissue culture experiments on protection of MTAP-positive cells (summary statements); type: cell-based, human; mouse
[5] = system: MTAP(+) ML-1 cells; test: Coulter counts of ML-1 suspension cultures; type: cell-based; conditions: for Increase in cell number/ml, No 5′-dAdo: 2 days, FU 3 μM, TG 20 μM, DAP 50 μM where present, initial Coulter count/ml 308,000; for inhibition of growth of MTAP(+) ML-1 cells: Example 14
Experimental: (§2) For cell types that grow in suspension (e.g., ML-1, HL-60, K-562) medium was RPMI-1640 with 10% FBS (undialyzed).
(§3) For adherent cell types, cell numbers were determined periodically by releasing cells with trypsin (dead cells that were no longer adherent were removed by two prior rinses of the culture dish) and placing a portion of the resulting cell suspension in a Coulter counter. For cell types that grow in suspension, portions of the culture were counted directly, without trypsin treatment. Coulter counts of cells from each dish were done twice, and almost all experiments were done in duplicate. In the presentation of results, raw data for Coulter counts is given in some cases, while in others, counts have been rounded off to two to three significant figures. (Background Coulter counts—i.e., counts of diluent alone—were insignificant.)
(§4) For cells that grow in suspension, the effect of treatments was assessed solely by changes in Coulter count.
• ML-1 cells were incubated in RPMI 1640 with 10% FBS with 5′-dAdo (60 μM) for 6 hours. 5-fluorouracil (FU), 6-thioguanine (TG), or 2,6-diaminopurine (DAP) were then added, and after 2 additional days, 0.5 ml was taken for Coulter counts. Initial Coulter count/ml: 308,000

[6] = system: MTAP(−) HL-60 cells; test: Coulter counts of HL-60 suspension cultures; type: cell-based; conditions: six days, 5′-dAdo or Ade 60 μM added 3 hours before, where present, initial cell number/ml 8,160
Experimental: as §2, §3, §4
• HL-60 cells were grown in RPMI 1640 with 10% FBS. 5′-dAdo, adenine, or neither were added, and after 3 hours, 5-fluorouracil (FU) was added to selected dishes. Six days later, cell numbers were assessed in a Coulter counter. • Initial cell number/ml: 8,160

[7] = system: MTAP(+) HT29 colon carcinoma cells; test: Coulter counts of HT29 cultures; type: cell-based, human; conditions: 4 days, 5′-dAdo 60 μM added one day before, where present, initial count 46,000, x4 = cells/dish
Experimental: as §3
• 5′-dAdo was added to cultures of MTAP(+) HT29 colon carcinoma cells for one day. 5-fluorouracil (FU) was then added and 4 days later cultures were trypsinized, thoroughly dispersed into mostly single cells by vigorous pipetting, and counted. • Initial Coulter count at time of addition of FU: 46,000

[8] = system: MTAP(+) HF cells; test: Coulter counts of HF cell cultures; type: cell-based, human; conditions: for Coulter counts: x56 = cells/dish
Experimental: For adherent cell types (e.g., HF, A549, MCF7) cells were plated in 60 mm -diameter plastic tissue culture dishes and incubated at 37° C. in a humidified 5% CO2 atmosphere, in Dulbecco's Modified Eagle's Medium (DME) with 10% fetal bovine serum (FBS). At the start of an experiment, medium was replaced with DME and 10% dialyzed FBS.
as §3
Cell cultures were treated with MeP, with or without 5′-dAdo or MTA, for 4 days. The cell cultures were then changed to fresh medium, with the addition of 30 μM Ade to inhibit further action of the analog. Two days later cultures were trypsinized and a portion of the suspension was counted.
• A. F-Ade was added to cultures of HF cells, with varying amounts of 5′-dAdo. After 3 days, cell numbers were counted. • Initial cell count: 1,100 • After three days:
• Cultures of human fibroblasts were treated with DAP, 5′-dAdo, MTA, adenine, or MTX. Thymidine (15 μM) was added to all cultures. • Initial count was: 1807 • Counts, as raw data, after 3 days of incubation, are shown below: […]
• Human fibroblasts in culture were treated with 6-thioguanine (TG), 2,6-diaminopurine (DAP), or 5′-dAdo for 3 days. After trypsinization, cell numbers were counted. • Initial cell number: 296,000

[9] = system: MTAP(+) hematopoietic cell progenitors; test: Assay of colony-forming cells from mouse bone marrow; type: cell-based
Excerpt: Method: The procedure for assay of colony-forming cells from mouse bone marrow was similar to methods described in the literature (see e.g., B. A. Teicher et al, Cancer Research, 47:513-518, 1987). In brief, cells were flushed from the femurs of Swiss mice, counted, and seeded into six-well tissue culture plates with supplemented McCoy's 5A medium, 15% FBS, 10 to 20% L929-cell conditioned medium as a source of colony-stimulating activity (L929 is MTAP-negative), 0.3% agar, and penicillin/streptomycin (op. cit. B. A. Teicher et al). Cells were seeded at two different densities: 50,000 and 250,000 cells per well. Control wells contained either no drugs, or adenine at 15 or 30 μM, or 5′-deoxyadenosine (5′-dAdo) at 15, 30, or 45 μM. Treatment wells contained 6-methylpurine (MeP) at 5 or 15 μM, 5′-deoxyadenosine (5′-dAdo) at 15 or 30 μM, and adenine at 15 or 30 μM, in various combinations. After eight days of incubation at 37° C. in a humidified 5% CO2 atmosphere, wells were fixed by the addition of 1 ml of 5% glutaraldehyde. Photographs were taken of a randomly selected portion of each well, as viewed (at fixed magnification) through a Nikon inverted microscope equipped with a camera.

[10] = system: human and mouse tumor cells; test: Killing of tumor cells by adenine analogs (Applicants' findings, no method given); type: cell-based
[11] = MTX 1 μM or alanosine 3 μM for one day, then DAP 40 μM, 3 days (where present), initial viable cells 146,000

## N[C@@H](CN(O)N=O)C(=O)O [Alanosine, alanosine]
[1]
  potentiation of selective killing of MTAP-negative cells by adenine and methionine antagonists: potentiated
[2]
  potentiation of killing of A549 cells by DAP: strongly potentiated
[2]; [11]
  Viable Cells: 118,000

## CCSCC[C@H](N)C(=O)O [Eth, ethionine]
[3]; 40 μM L-ethionine, methionine-free medium
  toxicity to HF cells: very toxic
[3]; 3 days in methionine-free medium, Eth 40 μM, MTA 15 μM where present, initial viable cells 88,000
  Viable Cells: 1,600
[2]; 4 days, methionine-free medium, Eth 40 μM, MTA 30 μM where present, initial viable cells 160,000
  Viable Cells: 24,000
[2]; 4 days, methionine-free medium, Eth 80 μM, MTA 30 μM where present, initial viable cells 160,000
  Viable Cells: 5,000

## Nc1nc2nn[nH]c2c(=O)[nH]1 [8-azaguanine]
[4]
  protection of MTAP-positive cells, but not MTAP-negative cells, from the toxicity of the nucleobase analog: selectively protected

## O=c1[nH]cc(F)c(=O)[nH]1 [FU, 5-fluorouracil]
[4]
  protection of MTAP-positive cells, but not MTAP-negative cells, from the toxicity of the nucleobase analog: selectively protected
[5]
  Increase in cell number/ml, No 5′-dAdo: 436,000 /ml
  inhibition of growth of MTAP(+) ML-1 cells: inhibited growth
[6]; FU 10 μM
  Coulter counts/ml: 125,200 counts/ml
[6]; FU 30 μM
  Coulter counts/ml: 62,400 counts/ml
[7]; FU 3 μM
  Coulter counts: 65,300
[7]; FU 10 μM
  Coulter counts: 36,600
[7]; FU 30 μM
  Coulter counts: 25,500

## Nc1ncnc2nc[nH]c12 [Ade, adenine]
[8]; Example 8
  blocking of DAP toxicity in HF cells: blocked
[2]; 10 μM MeP
  blocking of MeP toxicity in A549 cells: blocked
[2]; 100 μM DAP, Example 7
  blocking of DAP toxicity in A549 cells: did
[2]; 1 to 2 μM F-Ade
  blocking of F-Ade toxicity in A549 cells: blocked

## O=CN(O)CC(=O)O [hadacidin]
[1]
  potentiation of selective killing of MTAP-negative cells by adenine and methionine antagonists: potentiated

## CN(Cc1cnc2nc(N)nc(N)c2n1)c1ccc(C(=O)N[C@@H](CCC(=O)O)C(=O)O)cc1 [MTX, methotrexate]
[8]; 3 days, MTX 10 μM, DAP 100 μM, 5′-dAdo, MTA or Ade 15 μM where present, thymidine 15 μM in all cultures, initial count 1807
  Coulter counts: 3,455
[1]
  potentiation of selective killing of MTAP-negative cells by adenine and methionine antagonists: potentiated
[2]
  potentiation of killing of A549 cells by DAP: strongly potentiated
[2]; [11]
  Viable Cells: 89,000

## Nc1nc2nc[nH]c2c(=S)[nH]1 [TG, 6-thioguanine]
[8]; 3 days, TG 40 μM, DAP 50 μM, 5′-dAdo 60 μM where present, initial cell number 296,000
  Increase in cells/dish: 72,000 cells/dish
[8]; Example 15
  inhibition of HF cell growth: inhibited
[4]
  protection of MTAP-positive cells, but not MTAP-negative cells, from the toxicity of the nucleobase analog: selectively protected
[5]
  Increase in cell number/ml, No 5′-dAdo: 114,000 /ml
  inhibition of growth of MTAP(+) ML-1 cells: inhibited growth
[2]; 3 days, TG 40 μM, DAP 50 μM where present, initial viable cells 275,000
  Viable Cells: 200,000

## Cc1ncnc2nc[nH]c12 [MeP, 6-methylpurine]
[9]; MeP at doses of 5 and 15 μM
  toxicity to colony-forming murine hematopoietic progenitors: highly toxic
[9]; wells seeded at 250,000 cells/well, eight days, MeP 5 or 15 μM, adenine or 5′-dAdo 15 or 30 μM where present, control approximately 40-50 colonies
  colonies observed (each field of view): no colonies
[8]; MeP 5 μM, 5′-dAdo 20 μM or MTA 10 μM where present, 4 days, then fresh medium with 30 μM Ade, 2 days, initial count 1,157
  Coulter counts: 2,885
[8]; MeP 5-10 μM, Example 3
  toxicity to HF cells: strongly toxic
[10]
  killing of human and mouse tumor cells: very rapid and potent killing
[2]; 10 μM MeP
  toxicity to A549 cells, clonogenic assay: highly toxic
[2]; 4 days, MeP 10 μM, MTA, 5′-dAdo or Ade 20 μM where present, cell count at start 40,000, approximate
  Viable Cells: 0
